Key:
Format in all cases: cell-based
[1] = system: A549 NRF2-ARE-Fluc stable cell line; experiment: A549 Nrf2 assay: NRF2-ARE firefly luciferase reporter gene assay; details: Homo sapiens, read-out: Potency of inhibition, A549
In short: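 A549 cells (Keap1 loss-of-function, constitutive NRF2) stably carrying ARE-driven firefly luciferase; compound treatment 18–24 h at 37 °C, 0.46% DMSO final.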

[2] = system: H1437 NRF2-ARE-Fluc stable cell line; experiment: H1437 Nrf2 assay: NRF2-ARE firefly luciferase reporter gene assay; details: Homo sapiens, NCI-H1437, H1437 NRF2-ARE-Fluc stable cell line; read-out: Potency of inhibition, H1437
[3] = system: H838 NRF2-ARE-Fluc stable cell line; experiment: H838 Nrf2 assay: NRF2-ARE firefly luciferase reporter gene assay; details: Homo sapiens, NCI-H838, read-out: Potency of inhibition, H838
Source text: H838 is a NSCLC cell line with LOF Keap1 activity and constitutive translocation of NRF2 into the nucleus. A firefly luciferase reporter construct driven by a minimal promoter of NRF2-specific ARE is stably expressed in the H838 cells. This cell line was used as a confirmation assay to make sure hits identified from primary screening and that passed counterscreen assays worked in different cell types with a constitutively active NRF2 pathway (deficiency in Keap1).
This assay was very similar to the primary assay except that the cell line was changed. […] The final concentration of DMSO was maintained at 0.46%. Control compounds Budesonide and Staurosporine were both added at a concentration of 2 mM and Budesonide was also added as a 1:10 titration, starting at 200 μM, to achieve dose-response. After an 18-24 hour incubation at 37° C., 95% humidity, and 5% CO2, 1 μL of 5× CellTiter-Fluor non-lytic cell viability assay reagent (Promega, Madison Wis.) was added into the each well of the plates. The plates were then incubated for 30 minutes at room temperature before they were read on a ViewLux plate imager (Perkin Elmer, Waltham Mass.) using an excitation wavelength of 405 nm and an emission wavelength of 525 nm.
Representative compounds were assayed to assess the potency of inhibition in an A549 NRF2-ARE-Fluc stable cell line (A549 Nrf2 assay), in an H838 NRF2-ARE-Fluc stable cell line (H838 Nrf2 assay), and in an H1437 NRF2-ARE-Fluc stable cell line (H1437 Nrf2 assay) (see Table 3).

| IC50 [1] | IC50 [2] | IC50 [3] | SMILES |
| --- | --- | --- | --- |
| < 5 µM | < 5 µM | > 25 µM | CCN(CC)S(=O)(=O)c1cccc(NC(=O)CNc2cccc(S(=O)(=O)N3CCOCC3)c2)c1 [Compound 49] |
| < 5 µM | 5 to 25 µM | > 25 µM | O=C(Nc1ccc(S(=O)(=O)N2CCOCC2)cc1)c1ccc(CN2CCc3ccccc3C2)cc1 [Compound 48] |
| < 5 µM | > 25 µM | > 25 µM | Cc1ccc(C(=O)Nc2nc(-c3ccccn3)cs2)cc1S(=O)(=O)N1CCOCC1 [Compound 50] |
| 5 to 25 µM | > 25 µM | – | Cc1sc(NC(=O)Cc2ccc3c(c2)OCO3)nc1-c1ccc2c(c1)CCN2 [Compound 17, 2-(Benzo[d][1,3]dioxol-5-yl)-N-(4-(indolin-5-yl)-5-methylthiazol-2-yl)acetamide] |
| 5 to 25 µM | 5 to 25 µM | – | Cc1nccc(Cn2ccc(C(=O)Nc3ncc(Cc4ccc(C(F)(F)F)cc4)s3)n2)n1 [Compound 190] |
| 5 to 25 µM | > 25 µM | – | O=C(Nc1nc(Cc2ccccc2)cs1)c1ccc(-c2cccc([N+](=O)[O-])c2)o1 [Compound 85] |
| < 5 µM | 5 to 25 µM | – | CCN(CC)S(=O)(=O)c1cccc(C(=O)Nc2ccc(C#N)cc2)c1 [Compound 32] |
| < 5 µM | > 25 µM | – | Cc1ccccc1S(=O)(=O)N1CCc2cc(-c3nc(NC(=O)Cc4ccc(C(F)(F)F)cc4)sc3C)ccc21 [Compound 134] |
| > 25 µM | > 25 µM | – | O=C(Nc1ncc(CN2CCCCC2)s1)c1ccc(-c2cccc([N+](=O)[O-])c2)o1 [Compound 87] |
| 5 to 25 µM | 5 to 25 µM | – | O=C(Nc1ncc(Cc2ccc(C(F)(F)F)cc2)s1)c1cnc(-c2ccccc2)o1 [Compound 86] |
| < 5 µM | > 25 µM | – | Cc1sc(NC(=O)Cc2ccc3c(c2)OCO3)nc1-c1ccc2c(c1)CCN2C(=O)c1ccccc1Cl [Compound 116] |
| < 5 µM | 5 to 25 µM | – | Cc1ccccc1C(=O)N1CCc2cc(-c3nc(NC(=O)Cc4ccc5ccccc5c4)sc3C)ccc21 [Compound 9] |
| < 5 µM | < 5 µM | – | Cc1sc(NC(=O)Cc2ccc3c(c2)OCO3)nc1-c1ccc2c(c1)CCN2C(=O)c1sccc1Cl [Compound 186] |
| 5 to 25 µM | > 25 µM | – | O=C(Cc1ccccc1)Nc1cccc(-c2ccc3[nH]ncc3c2)n1 [Compound 91, N-(6-(1H-indazol-5-yl)pyridin-2-yl)-2-phenylacetamide] |
| 5 to 25 µM | 5 to 25 µM | – | COc1ccc(CC(=O)Nc2nc(-c3ccc4c(c3)CCN4C(=O)c3ccc(C4(C(F)(F)F)N=N4)cc3)c(C)s2)cc1 [Compound 233] |
| 5 to 25 µM | 5 to 25 µM | – | Cc1ccccc1C(=O)N1CCc2cc(-c3nc(NC(=O)CN4CCCCC4)sc3C)ccc21 [Compound 66] |
| < 5 µM | > 25 µM | – | CN1CCN(S(=O)(=O)c2ccc(NC(=O)c3ccc(CN4CCc5ccccc5C4)cc3)cc2)CC1 [compound 146] |
| 5 to 25 µM | > 25 µM | – | Cc1ccccc1C(=O)N1CCc2cc(-c3cccc(NC(=O)Cc4ccc5c(c4)OCO5)c3)ccc21 [Compound 31] |
| < 5 µM | 5 to 25 µM | – | CC1(C)CC2CC(C)(CN2S(=O)(=O)c2ccc(C(=O)Nc3ccc(Cl)cc3)cc2)C1 (stereo not drawn) [compound 53] |
| 5 to 25 µM | 5 to 25 µM | – | COc1ccc(Cc2cnc(NC(=O)c3ccn(-c4ccccc4)n3)s2)cc1 [Compound 223] |
| 5 to 25 µM | 5 to 25 µM | – | O=C(Nc1cccc(Cc2ccccc2)c1)c1ccc(-c2cccc([N+](=O)[O-])c2)o1 [Compound 56] |
| 5 to 25 µM | 5 to 25 µM | – | Cc1ccccc1C(=O)N1CCc2cc(-c3nc(NC(=O)Cc4cccc(O)c4)sc3C)ccc21 [Compound 234, 2-(3-hydroxyphenyl)-N-(5-methyl-4-(1-(2-methylbenzoyl)indolin-5-yl)thiazol-2-yl)acetamide] |
| 5 to 25 µM | > 25 µM | – | Cc1ccccc1C(=O)N1CCc2cc(Br)ccc21 [Compound 107, (5-bromoindolin-1-yl)(o-tolyl)methanone] |
| < 5 µM | 5 to 25 µM | – | Cc1ccccc1S(=O)(=O)N1CCc2cc(-c3nc(NC(=O)Cc4ccc5c(c4)OCO5)sc3C)ccc21 [Compound 24] |

| SMILES | IC50 [1] | IC50 [2] | IC50 [3] |
| --- | --- | --- | --- |
| COc1ccccc1C(=O)Nc1nc(-c2ccc(S(=O)(=O)N3CCOCC3)cc2)cs1 [Compound 47] | < 5 µM | < 5 µM | < 5 µM |

— patent US20160046616A1, “NRF2 SMALL MOLECULE INHIBITORS FOR CANCER THERAPY” (THE JOHNS HOPKINS UNIVERSITY, priority 2013, published 2016)
